Laboratory results: patent US20100055169A1, “CATIONIC LIPIDS AND USES THEREOF” (ABBOTT LABORATORIES, priority 2008, published 2010)

Test: Particle sizing assay (Zetasizer Nano ZS), in vivo formulations
Type: physicochemical
Settings: lipid:siRNA 25:1
Summary of the method: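 Lipid–siRNA particles formed by ethanol injection into pH 4.0 citrate buffer at 65 °C, diluted in PBS pH 7.4, diafiltered (100K) and sterile-filtered. Size and PDI by dynamic light scattering, 633 nm He–Ne laser, 173° backscatter, 25 °C, water viscosity/refractive index.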

[1] = in vivo formulation A: Cationic lipid/Example 73/DSPC/Chol 45/10/15/30 wt %
[2] = in vivo formulation B: Cationic lipid/PEG-cholesterol/DSPC/Chol 45/10/15/30 wt %
[3] = in vivo formulation C: Cationic lipid/Pal-PEG-Cera/DSPC/Chol 45/10/15/30 wt %
[4] = in vivo formulation D: Cationic lipid/Example 66/DSPC/Chol 45/10/15/30 wt %
[5] = in vivo formulation E: Cationic lipid/Example 53/DSPC/Chol 45/10/15/30 wt %
[6] = in vivo formulation F: Cationic lipid/Example 54/DSPC/Chol 45/10/15/30 wt %
[7] = in vivo formulation G: Cationic lipid/Example 55/DSPC/Chol 45/10/15/30 wt %
[8] = in vivo formulation H: Cationic lipid/PEG-DMPE/DSPC/Chol 45/10/15/30 wt %
[9] = in vivo formulation J: Cationic lipid/PEG-DSPE/DSPC/Chol 45/10/15/30 wt %
[10] = in vivo formulation K: Cationic lipid/PEG-DMG/DSPC/Chol 45/10/15/30 wt %
[11] = in vivo formulation M: Cationic lipid/PEG-DSG/DSPC/Chol 45/10/15/30 wt %
[12] = in vivo formulation NN: Cationic lipid/Example 74/DSPC/Chol 45/10/15/30 wt %
[13] = in vivo formulation OO: Cationic lipid/Example 75/DSPC/Chol 45/10/15/30 wt %
[14] = in vivo formulation P: Cationic lipid/PEG-DSPE/DOPE/Chol 45/10/15/30 wt %
[15] = in vivo formulation PP: Cationic lipid/Example 73/Chol 45/10/45 wt %
[16] = in vivo formulation Q: Cationic lipid/PEG-DSPE/DOPC/Chol 45/10/15/30 wt %
[17] = in vivo formulation R: Cationic lipid/PEG-DSPE/SPC/Chol 45/10/15/30 wt %

Q: For `CCCCC/C=C\C/C=C\CCCCCCCCOCC(CCN1CCCC1)OCCCCCCCC/C=C\C/C=C\CCCCC` (stereo not shown) [Example 24, 1-{3,4-bis[(9Z,12Z)-octadeca-9,12-dienyloxy]butyl}pyrrolidine], which Size [1] is on record?
A: 96 nm

Q: What about the “Size distribution (PDI)” value [1] of the same compound?
A: (0.06)

Q: And the Size [2]?
A: 327 nm

Q: And the “Size distribution (PDI)” value [2]?
A: (0.198)

Q: And the Size [3]?
A: 141 nm

Q: And the “Size distribution (PDI)” value [3]?
A: (0.026)

Q: And the Size [4]?
A: 164 nm

Q: What about the “Size distribution (PDI)” value [4] of the same compound?
A: (0.104)

Q: What about the Size [5] of the same compound?
A: 169 nm

Q: What about the “Size distribution (PDI)” value [5] of the same compound?
A: (0.163)

Q: And the Size [6]?
A: 152 nm

Q: What about the “Size distribution (PDI)” value [6] of the same compound?
A: (0.08)

Q: And the Size [7]?
A: 164 nm

Q: What about the “Size distribution (PDI)” value [7] of the same compound?
A: (0.104)

Q: What about the Size [8] of the same compound?
A: 168 nm

Q: What about the “Size distribution (PDI)” value [8] of the same compound?
A: (0.007)

Q: What about the Size [9] of the same compound?
A: 119.7 nm

Q: And the “Size distribution (PDI)” value [9]?
A: (0.006)

Q: And the Size [10]?
A: 155 nm

Q: And the “Size distribution (PDI)” value [10]?
A: (0.052)

Q: And the Size [11]?
A: 116.5 nm

Q: What about the “Size distribution (PDI)” value [11] of the same compound?
A: (0.029)

Q: And the Size [12]?
A: 140 nm

Q: What about the “Size distribution (PDI)” value [12] of the same compound?
A: (0.029)

Q: And the Size [13]?
A: 142 nm

Q: And the “Size distribution (PDI)” value [13]?
A: (0.029)

Q: What about the Size [14] of the same compound?
A: 153.7 nm

Q: What about the “Size distribution (PDI)” value [14] of the same compound?
A: (0.061)

Q: And the Size [15]?
A: 108.7 nm

Q: What about the “Size distribution (PDI)” value [15] of the same compound?
A: (0.094)

Q: What about the Size [16] of the same compound?
A: 144.1 nm

Q: And the “Size distribution (PDI)” value [16]?
A: (0.01)

Q: What about the Size [17] of the same compound?
A: 159.6 nm

Q: What about the “Size distribution (PDI)” value [17] of the same compound?
A: (0.036)
